Laboratory results: paper PMC5411961, “One amino acid makes a difference–Characterization of a new TPMT allele and the influence of SAM on TPMT stability” (Scientific Reports, 2017)

Target: T1, TPMTwt (Homo sapiens, UniProt P51580)
T1 construct: gene TPMT; recombinant, pET-28a, E. coli BL21(DE3) CodonPlus, His-tag cleaved off with thrombin, Ni-NTA and gel filtration
T1 sequence (P51580 1-245): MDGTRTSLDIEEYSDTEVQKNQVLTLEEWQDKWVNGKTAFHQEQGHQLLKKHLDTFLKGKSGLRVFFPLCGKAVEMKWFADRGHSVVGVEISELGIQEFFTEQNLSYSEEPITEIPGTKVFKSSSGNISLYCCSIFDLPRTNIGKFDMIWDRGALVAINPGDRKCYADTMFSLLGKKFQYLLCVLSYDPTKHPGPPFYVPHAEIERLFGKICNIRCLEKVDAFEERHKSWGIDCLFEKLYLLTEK
Assay: isothermal titration calorimetry
Type: binding

Structure (SMILES): C[S+](CC[C@H](N)C(=O)O)C[C@H]1O[C@@H](n2cnc3c(N)ncnc32)[C@H](O)[C@@H]1O (stereo partly shown) [SAM]
- Kd: 2.7 µM
